≈ marks a conversion by molar mass, not a printed value. Like-named read-outs stand apart in the source and are kept apart here.
Key:
[1] = system: OXA-48; conditions: cited from earlier work
[2] = system: OXA 24/40; conditions: cited from earlier work
[3] = system: OXA-10; conditions: cited from earlier work
[4] = biological target: ADC-7 β-lactamase (Acinetobacter baumannii, UniProt Q6DRA1); assay: β-Lactamase steady-state kinetic analysis, ADC-7; format: biochemical, A. baumannii
[5] = system: OXA-24/40; conditions: range given jointly for several OXA enzymes; cited from earlier work
[6] = biological target: OXA-66 β-lactamase (Acinetobacter baumannii, UniProt Q58XD2); assay: β-Lactamase steady-state kinetic analysis, OXA-66; format: biochemical, A. baumannii
[7] = biological target: T1, OXA-58 β-lactamase (Acinetobacter baumannii, UniProt Q2TR58); assay: β-Lactamase steady-state kinetic analysis, OXA-58; format: biochemical, Acinetobacter spp.
[8] = system: KPC-2 β-lactamase; conditions: cited from earlier work
[9] = system: A. baumannii ARC5955; assay: Neutropenic murine thigh infection model; format: in vivo; conditions: thigh tissue, CD-1 mice, 24 h after initiation of therapy, 50 mg/kg SC/q3h
[10] = biological target: T1, OXA-58 β-lactamase; assay: OXA-58 acyl-transfer experiment (mass spectrometry), KPC-2 as recipient; format: biochemical; conditions: 10 µM each, 15 s to 24 h
[11] = system: OXA-23; conditions: range given jointly for several OXA enzymes; cited from earlier work
[12] = system: A. baumannii clinical isolates; assay: Broth microdilution MIC susceptibility testing against carbapenems; format: cell-based, Acinetobacter baumannii; conditions: Acinetobacter baumannii
[13] = read-out: koff (residence time)

T1 sequence (Q2TR58 22-280): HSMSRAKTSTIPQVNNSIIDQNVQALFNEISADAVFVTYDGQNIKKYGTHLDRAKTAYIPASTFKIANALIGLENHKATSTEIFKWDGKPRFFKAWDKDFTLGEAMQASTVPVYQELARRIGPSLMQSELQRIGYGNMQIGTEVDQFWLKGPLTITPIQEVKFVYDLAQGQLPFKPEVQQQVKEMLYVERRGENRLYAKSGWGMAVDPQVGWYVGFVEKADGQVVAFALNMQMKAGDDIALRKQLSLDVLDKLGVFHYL
Chain of OXA-66 β-lactamase (Q58XD2 entry or part of it): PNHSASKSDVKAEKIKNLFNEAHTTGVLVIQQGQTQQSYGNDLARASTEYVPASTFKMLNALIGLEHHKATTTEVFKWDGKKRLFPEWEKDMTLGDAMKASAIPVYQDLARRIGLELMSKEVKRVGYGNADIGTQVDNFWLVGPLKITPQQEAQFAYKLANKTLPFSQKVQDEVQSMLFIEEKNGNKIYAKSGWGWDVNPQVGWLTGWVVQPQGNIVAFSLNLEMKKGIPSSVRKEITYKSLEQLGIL

Question: What does the source list for `NC(=O)[C@@H]1CC[C@@H]2CN1C(=O)N2OS(=O)(=O)O` [Avibactam, avibactam]?
Answer: k2/Ki [1]: 1.4 ± 0.1 × 10^3 M^−1 s^−1; IC50 [2]: […]; k2/Ki ([3]; OXA-10 from Pseudomonas aeruginosa): 1.1 ± 0.1 × 10^1 M^−1 s^−1

Question: Which Kd [4] does the source give for `CC1=C[C@@H]2CN(C(=O)N2OS(=O)(=O)O)[C@@H]1C(N)=O` [ETX2514] here?
Answer: The Kd was 1 ± 0.1 nM.

Question: What about the Ki [4] of the same molecule?
Answer: The Ki was 110 ± 10 nM.

Question: And the kinact/KI ([4]; pH 7.4, read-out: k2/Ki)?
Answer: Its kinact/KI is 1e+06 ± 1e+11 M⁻¹ s⁻¹.

Question: And the koff [4, 13]?
Answer: The koff was 0.0008 ± 1e-08 s⁻¹.

Question: And the “k2/Ki (acylation rate)” value [5]?
Answer: Its value is 5 to 9 × 10^3 M^−1 s^−1.

Question: What about the k2/Ki [1] of the same molecule?
Answer: The k2/Ki was 8 ± 2 × 10^5 M^−1 s^−1.

Question: And the IC50 [2]?
Answer: Its IC50 is 190 nM.

Question: What about the Ki [6] of the same molecule?
Answer: Its Ki is 43000 ± 4000 nM.

Question: What about the Kd [7] of the same molecule?
Answer: The Kd was 1 ± 0.2 nM.

Question: And the Ki [7]?
Answer: Its Ki is 390 ± 40 nM.

Question: What about the kinact/KI ([7]; pH 7.4, read-out: k2/Ki) of the same molecule?
Answer: The kinact/KI was 250000 ± 3e+09 M⁻¹ s⁻¹.

Question: What about the koff [7, 13] of the same molecule?
Answer: The koff was 0.00016 s⁻¹.

Question: What about the k2/Ki ([3]; OXA-10, range given jointly for several OXA enzymes) of the same molecule?
Answer: The k2/Ki was 5 to 9 × 10^3 M^−1 s^−1.

Question: And the k2/Ki [8]?
Answer: The k2/Ki was 9.3 ± 0.6 × 10^5 M^−1 s^−1.

Question: And the koff [8]?
Answer: Its koff is 1.0 ± 0.1 × 10^−3 s^−1.

Question: And the “Log10 CFU/g” value [9]?
Answer: Its value is 8.8 log10 CFU/g.

Question: What about the “Change in log10 CFU/g” value ([9]; 50 mg/kg) of the same molecule?
Answer: The value was 2.2 log10 CFU/g.

Question: What about the “acyl transfer from acylated OXA-58 to KPC-2” value [10] of the same molecule?
Answer: The value was “did not transfer to KPC-2”.

Question: And the “k2/Ki (acylation rate)” value [11]?
Answer: The value was 5 to 9 × 10^3 M^−1 s^−1.

Question: With `C[C@@H](O)[C@H]1C(=O)N2C(C(=O)O)=C(SCCN=CN)C[C@H]12` [Imipenem] as the molecule, how does the MIC ([12]; strain CCF 1MR) read?
Answer: The MIC was > 8 µg/mL.

Question: And the MIC ([12]; strain CCF 2MR)?
Answer: The MIC was > 8 µg/mL.

Question: What about the MIC ([12]; strain CCF 3MR) of the same molecule?
Answer: The MIC was > 8 µg/mL.

Question: And the MIC ([12]; strain CCF 4MR)?
Answer: The MIC was > 8 µg/mL.

Question: And the MIC ([12]; strain CCF 5MR)?
Answer: Its MIC is > 8 µg/mL.

Question: And the MIC ([12]; strain CCF 6MR)?
Answer: Its MIC is > 8 µg/mL.

Question: What about the MIC ([12]; strain CCF 7MR) of the same molecule?
Answer: Its MIC is > 8 µg/mL.

Question: And the MIC ([12]; strain CCF 8MR)?
Answer: The MIC was > 8 µg/mL.

Question: What about the MIC ([12]; strain UH AB202) of the same molecule?
Answer: The MIC was > 8 µg/mL.

Question: What about the MIC ([12]; strain UH AB461) of the same molecule?
Answer: The MIC was > 8 µg/mL.

Question: What about the MIC ([12]; strain UH AB477) of the same molecule?
Answer: Its MIC is > 8 µg/mL.

Question: What about the MIC ([12]; strain UH AB487) of the same molecule?
Answer: The MIC was > 8 µg/mL.

Question: And the MIC ([12]; strain UH AB489)?
Answer: Its MIC is > 8 µg/mL.

Question: What about the MIC ([12]; strain UH AB490) of the same molecule?
Answer: The MIC was > 8 µg/mL.

Question: What about the MIC ([12]; strain UH AB491) of the same molecule?
Answer: Its MIC is > 8 µg/mL.

Question: What about the MIC ([12]; strain UH AB636) of the same molecule?
Answer: The MIC was > 8 µg/mL.

Question: What about the MIC ([12]; strain UH AB660) of the same molecule?
Answer: Its MIC is > 8 µg/mL.

Question: What about the MIC ([12]; strain UH AB667) of the same molecule?
Answer: The MIC was > 8 µg/mL.

Question: What about the MIC ([12]; strain VA-432) of the same molecule?
Answer: The MIC was 32 µg/mL (≈ 107 µM).

Question: What about the MIC ([12]; strain VA-433) of the same molecule?
Answer: The MIC was 16 µg/mL (≈ 53.4 µM).

Question: What about the MIC ([12]; strain VA-434) of the same molecule?
Answer: The MIC was 64 µg/mL (≈ 214 µM).

Question: What about the MIC ([12]; strain VA-435) of the same molecule?
Answer: Its MIC is 32 µg/mL (≈ 107 µM).

Question: What about the MIC ([12]; strain VA-436) of the same molecule?
Answer: The MIC was 64 µg/mL (≈ 214 µM).

Question: What about the MIC ([12]; strain VA-437) of the same molecule?
Answer: Its MIC is 32 µg/mL (≈ 107 µM).

Question: What about the MIC ([12]; strain VA-438) of the same molecule?
Answer: The MIC was 16 µg/mL (≈ 53.4 µM).

Question: What about the MIC ([12]; strain VA-505) of the same molecule?
Answer: Its MIC is 32 µg/mL (≈ 107 µM).
